System: mice
Assay: In vivo delivery of FLuc-circ-RNA lipid nanoparticles in mice (IVIS imaging)
Details: for delivery efficiencies on change from mRNA to circular RNA: statement on Table 3, circular RNA LNP vs mRNA LNP; for IVIS: FLuc-circRNA LNP, IV
Method: 8.2 Investigation of the Delivery Efficacy of Nucleic Acid Lipid Nanoparticles for FLuc-Circ-mRNA in Mice
Lipid nanoparticles loaded with nucleic acid drugs were prepared according to step 2, replacing FLuc-mRNA with FLuc-circ-RNA (Shanghai Zhiwei Technology Development Co., Ltd.). After formulation, the nanoparticles were administered via intramuscular injection (into the quadriceps femoris muscle of mice), intravenous injection (into the tail vein of mice), intraperitoneal injection, or subcutaneous injection (subcutaneously on the back). Approximately 75 μL was injected per mouse, with a total of 3 mice per group. In vivo imaging (PerkinElmer, IVIS Lumina III) was performed after a certain period of time. Ten to fifteen minutes before imaging, 200 μL of a 15 mg/mL D-Luciferin working solution was injected intraperitoneally, followed by imaging analysis using the in vivo imaging system.

SMILES | delivery efficiencies on change from mRNA to circular RNA | IVIS (organ liver) | IVIS (organ lung) | IVIS (organ spleen)
CCCCCCCCC(CCCCCC)C(=O)NCCOC(=O)C(O)CN(CCO)CCCN(CC(O)C(=O)OCCNC(=O)C(CCCCCC)CCCCCCCC)CC(O)C(=O)OCCNC(=O)C(CCCCCC)CCCCCCCC (stereo not shown) [Compound L0714] | further increased the delivery efficiencies |  |  | 
CCCCCCC(CCCCCC)C(=O)NCCOC(=O)C(O)CN(CCO)CCCN(CC(O)C(=O)OCCNC(=O)C(CCCCCC)CCCCCC)CC(O)C(=O)OCCNC(=O)C(CCCCCC)CCCCCC (stereo not shown) [Compound L0711] | further increased the delivery efficiencies |  |  | 
CCCCCCOC(C)OCCCCCCOC(=O)C(O)CN(CCO)CCCN(CC(O)C(=O)OCCCCCCOC(C)OCCCCCC)CC(O)C(=O)OCCCCCCOC(C)OCCCCCC (stereo not shown) [Compound L0692] | further increased the delivery efficiencies | 3.34E+06 | 8.55E+04 | 2.64E+06
CCCCCCC(CCCCCC)C(=O)OCCCCCCNC(=O)C(O)CN(CCO)CCCN(CC(O)C(=O)NCCCCCCOC(=O)C(CCCCCC)CCCCCC)CC(O)C(=O)NCCCCCCOC(=O)C(CCCCCC)CCCCCC (stereo not shown) [Compound L0710] | further increased the delivery efficiencies | 3.07E+08 | 4.78E+06 | 9.97E+07
